Tests used:
[1] = target: T1, HIV-Integrase (Human immunodeficiency virus type 1 group M subtype B, UniProt P12497); assay: HIV-Integrase binding assay (competition with [3H]-compound I, SPA); details: competitive binding vs [3H]-compound I to purified integrase; Ki by Cheng and Prusoff; read-out: in vitro binding
T1 construct: Recombinant integrase (0.26 ng) was incubated with the beads
Method: HIV-Integrase Inhibition Activity. To evaluate in-vitro activity against HIV-integrase, 5 pmole of biotin labeled substrate DNA was bound to 100 μg of Streptavidin coated PVT SPA beads (Amersham Pharmacia Biotech). Recombinant integrase (0.26 ng) was incubated with the beads for 90 min at 37° C. Unbound enzyme was removed by washing the complex followed by addition of inhibitors and 0.1 fmol of P33 labeled target DNA. The reaction was stopped by adding EDTA to a final concentration of 10 mM. Samples were counted in TopCountNXT (Packard) and the CPM was used as a measure of integration. The reaction condition was as described in A. Engelman and R. Craigie, J. Virol. 69, 5908-5911 (1995). The sequences of substrate and target DNA were described in Nucleic Acid Research 22,1121-1122 (1994).
HIV-Integrase binding assay. In this assay competitive binding experiments with test compounds and a radiolabeled integrase inhibitor (compound I) are performed against purified integrase. SPA bead/DNA/enzyme complexes were prepared as for the integrase inhibition assay except, to each well, 0.69 μl of integrase enzyme ([…]) was used per 2 μl of LTR DNA-attached scintillation proximity beads (stock 50 mg/ml). Binding reactions were carried out in 96-well white polystyrene assay plates (Corning, #3600). The following was added sequentially to each well: 20 μl of water or 20 μl of human serum (Cellgro Cat# 35-060-CL), 5 μl of serially diluted compound (in 50% DMSO/50% integrase SPA buffer), 5 μl of [^3H]-compound I (6,000 cpm/μl in SPA buffer) and 20 μl of bead/DNA/enzyme complex. The plates were shaken for 2 hours and then allowed to sit at room temperature without shaking overnight. The [^3H]-compound I binding was measured using a Topcount scintillation counter. Cheng and Prusoff equations were used to convert the inhibition of compound 1 binding into the corresponding Ki value. Activity equal to A refers to a compound having Ki=0.001 to 0.003 μM while B and C denote compounds having Ki=0.003 to 0.05 μM and Ki≧0.050 μM respectively.

[2] = tested on: recombinant NL-Rluc virus; assay: Inhibition of HIV replication (NL-RLuc virus, Renilla luciferase); type: cell-based; details: Human immunodeficiency virus 1, read-out: antiviral actitively

Compound | Ki [1] [nM] | EC50 [2] [nM]
CC1(C)COCCn2c1nc(C(=O)NCc1ccc(F)cc1)c(O)c2=O [Example 1, N-((4-Fluorophenyl)methyl)-3-hydroxy-10,10-dimethyl-4-oxo-6,7,9,10-tetrahydro-4H-pyrimido[1,2-d][1,4]oxazepine-2-carboxamide] | 3 to 50 | 10 to 50
CC1(C)COCCn2c1nc(C(=O)NCc1ccc(F)cc1-n1cncn1)c(O)c2=O [Example 2, N-((4-Fluoro-2-(1H-1,2,4-triazol-1-yl)phenyl)methyl)-3-hydroxy-10,10-dimethyl-4-oxo-6,7,9,10-tetrahydro-4H-pyrimido[1,2-d][1,4]oxazepine-2-carboxamide] | 3 to 50 | 1 to 10
CC1(C)COCCn2c1nc(C(=O)NCc1ccc(F)cc1S(C)(=O)=O)c(O)c2=O [Example 3, N-((4-Fluoro-2-(methylsulfonyl)phenyl)methyl)-3-hydroxy-10,10-dimethyl-4-oxo-6,7,9,10-tetrahydro-4H-pyrimido[1,2-d][1,4]oxazepine-2-carboxamide] | 3 to 50 | 1 to 10
Cc1ncnn1-c1cc(F)ccc1CNC(=O)c1nc2n(c(=O)c1O)CCOCC2(C)C [Example 4, N-((4-Fluoro-2-(5-methyl-1H-1,2,4-triazol-1-yl)phenyl)methyl)-3-hydroxy-10,10-dimethyl-4-oxo-6,7,9,10-tetrahydro-4H-pyrimido[1,2-d][1,4]oxazepine-2-carboxamide] | 3 to 50 | 1 to 10
Cc1nc(C)n(-c2cc(F)ccc2CNC(=O)c2nc3n(c(=O)c2O)CCOCC3(C)C)n1 [Example 5, N-((2-(3,5-dimethyl-1H-1,2,4-triazol-1-yl)-4-fluorophenyl)methyl)-3-hydroxy-10,10-dimethyl-4-oxo-6,7,9,10-tetrahydro-4H-pyrimido[1,2-d][1,4]oxazepine-2-carboxamide] | 3 to 50 | 10 to 50
Cc1ncn(-c2cc(F)ccc2CNC(=O)c2nc3n(c(=O)c2O)CCOCC3(C)C)n1 [Example 6, N-((4-fluoro-2-(3-methyl-1H-1,2,4-triazol-1-yl)phenyl)methyl)-3-hydroxy-10,10-dimethyl-4-oxo-6,7,9,10-tetrahydro-4H-pyrimido[1,2-d][1,4]oxazepine-2-carboxamide] | 3 to 50 | 1 to 10
O=C(NCc1ccc(F)cc1)c1nc2n(c(=O)c1O)CCOCC21CCC1 [Example 7, N-((4-fluorophenyl)methyl)-3′-hydroxy-4′-oxo-6′,7′-dihydro-4′H-spiro[cyclobutane-1,10′-pyrimido[1,2-d][1,4]oxazepine]-2′-carboxamide] | 1 to 3 | 10 to 50
CS(=O)(=O)c1cc(F)ccc1CNC(=O)c1nc2n(c(=O)c1O)CCOCC21CCC1 [Example 8, N-((4-fluoro-2-(methylsulfonyl)phenyl)methyl)-3′-hydroxy-4′-oxo-6′,7′-dihydro-4′H-spiro[cyclobutane-1,10′-pyrimido[1,2-d][1,4]oxazepine]-2′-carboxamide] | 1 to 3 | 1 to 10
O=C(NCc1ccc(F)cc1-n1cncn1)c1nc2n(c(=O)c1O)CCOCC21CCC1 [Example 9, N-((4-fluoro-2-(1H-1,2,4-triazol-1-yl)phenyl)methyl)-3′-hydroxy-4′-oxo-6′,7′-dihydro-4′H-spiro[cyclobutane-1,10′-pyrimido[1,2-d][1,4]oxazepine]-2′-carboxamide] | 1 to 3 | 1 to 10
Cc1ncnn1-c1cc(F)ccc1CNC(=O)c1nc2n(c(=O)c1O)CCOCC21CCC1 [Example 10, N-((4-fluoro-2-(5-methyl-1H-1,2,4-triazol-1-yl)phenyl)methyl)-3′-hydroxy-4′-oxo-6′,7′-dihydro-4′H-spiro[cyclobutane-1,10′-pyrimido[1,2-d][1,4]oxazepine]-2′-carboxamide] | 1 to 3 | 1 to 10
Cc1nc(C)n(-c2cc(F)ccc2CNC(=O)c2nc3n(c(=O)c2O)CCOCC32CCC2)n1 [Example 11, N-((2-(3,5-dimethyl-1H-1,2,4-triazol-1-yl)-4-fluorophenyl)methyl)-3′-hydroxy-4′-oxo-6′,7′-dihydro-4′H-spiro[cyclobutane-1,10′-pyrimido[1,2-d][1,4]oxazepine]-2′-carboxamide] | 3 to 50 | 1 to 10
O=C(NCc1ccc(F)cc1)c1nc2n(c(=O)c1O)CCOCC21CCCC1 [Example 12, N-((4-fluorophenyl)methyl)-3′-hydroxy-4′-oxo-6′,7′-dihydro-4′H-spiro[cyclopentane-1,10′-pyrimido[1,2-d][1,4]oxazepine]-2′-carboxamide] | 1 to 3 | 1 to 10
CS(=O)(=O)c1cc(F)ccc1CNC(=O)c1nc2n(c(=O)c1O)CCOCC21CCCC1 [Example 13, N-((4-fluoro-2-(methylsulfonyl)phenyl)methyl)-3′-hydroxy-4′-oxo-6′,7′-dihydro-4′H-spiro[cyclopentane-1,10′-pyrimido[1,2-d][1,4]oxazepine]-2′-carboxamide] | 1 to 3 | 1 to 10
O=C(NCc1ccc(F)cc1-n1cncn1)c1nc2n(c(=O)c1O)CCOCC21CCCC1 [Example 14, N-((4-fluoro-2-(1H-1,2,4-triazol-1-yl)phenyl)methyl)-3′-hydroxy-4′-oxo-6′,7′-dihydro-4′H-spiro[cyclopentane-1,10′-pyrimido[1,2-d][1,4]oxazepine]-2′-carboxamide] | 1 to 3 | 1 to 10
Cn1nnc(-c2cc(F)ccc2CNC(=O)c2nc3n(c(=O)c2O)CCOCC32CCCC2)n1 [Example 15, N-((4-fluoro-2-(2-methyl-2H-tetrazol-5-yl)phenyl)methyl)-3′-hydroxy-4′-oxo-6′,7′-dihydro-4′H-spiro[cyclopentane-1,10′-pyrimido[1,2-d][1,4]oxazepine]-2′-carboxamide] | 1 to 3 | 1 to 10
CC1(C)COCCn2c1nc(C(=O)NCc1ccc(F)cc1N1CCCC1=O)c(O)c2=O [Example 16, N-((4-fluoro-2-(2-oxo-1-pyrrolidinyl)phenyl)methyl)-3-hydroxy-10,10-dimethyl-4-oxo-6,7,9,10-tetrahydro-4H-pyrimido[1,2-d][1,4]oxazepine-2-carboxamide] | 1 to 3 | 1 to 10
COP(=O)(OC)c1cc(F)ccc1CNC(=O)c1nc2n(c(=O)c1O)CCOCC2(C)C [Example 17, Dimethyl (5-fluoro-2-((((3-hydroxy-10,10-dimethyl-4-oxo-6,7,9,10-tetrahydro-4H-pyrimido[1,2-d][1,4]oxazepin-2-yl)carbonyl)amino)methyl)phenyl)-phosphonate] | 3 to 50 | 1 to 10
Cc1nnn(-c2cc(F)ccc2CNC(=O)c2nc3n(c(=O)c2O)CCOCC3(C)C)c1C [Example 18, N-(2-(4,5-Dimethyl-1H-1,2,3-triazol-1-yl)-4-fluorobenzyl)-3-hydroxy-10,10-dimethyl-4-oxo-6,7,9,10-tetrahydro-4H-pyrimido[1,2-d][1,4]oxazepine-2-carboxamide] | 3 to 50 | 1 to 10
Cc1cnnn1-c1cc(F)ccc1CNC(=O)c1nc2n(c(=O)c1O)CCOCC2(C)C [Example 19, N-(4-fluoro-2-(5-methyl-1H-1,2,3-triazol-1-yl)benzyl)-3-hydroxy-10,10-dimethyl-4-oxo-6,7,9,10-tetrahydro-4H-pyrimido[1,2-d][1,4]oxazepine-2-carboxamide] | 3 to 50 | 1 to 10
CC1(C)COCCn2c1nc(C(=O)NCc1ccc(F)cc1-n1ncnc1-c1ccccc1)c(O)c2=O [Example 20, N-((4-fluoro-2-(5-phenyl-1H-1,2,4-triazol-1-yl)phenyl)methyl)-3-hydroxy-10,10-dimethyl-4-oxo-6,7,9,10-tetrahydro-4H-pyrimido[1,2-d][1,4]oxazepine-2-carboxamide] | ≥ 50 | > 50
Cc1ncn(-c2cc(F)ccc2CNC(=O)c2nc3n(c(=O)c2O)CCOCC32CCCC2)n1 [Example 21, N-((4-fluoro-2-(3-methyl-1H-1,2,4-triazol-1-yl)phenyl)methyl)-3′-hydroxy-4′-oxo-6′,7′-dihydro-4′H-spiro[cyclopentane-1,10′-pyrimido[1,2-d][1,4]oxazepine]-2′-carboxamide] | 1 to 3 | 1 to 10
CCc1ncnn1-c1cc(F)ccc1CNC(=O)c1nc2n(c(=O)c1O)CCOCC21CCCC1 [Example 22, N-((2-(5-ethyl-1H-1,2,4-triazol-1-yl)-4-fluorophenyl)methyl)-3′-hydroxy-4′-oxo-6′,7′-dihydro-4′H-spiro[cyclopentane-1,10′-pyrimido[1,2-d][1,4]oxazepine]-2′-carboxamide] | 3 to 50 | 1 to 10

Reference: US8039458B2, “HIV integrase inhibitors” (priority 2005, dated 2011)
